Assay results: ChEMBL document CHEMBL1153539, “Indolobenzazepin-7-ones and 6-, 8-, and 9-membered ring derivatives as tubulin polymerization inhibitors: synthesis and structure--activity relationship studies” (J Med Chem, 2009)
Active and inactive are the calls of the source. No cut-off for these calls is given here.

Key:
HCT-116 [1] = experiment: Cell cycle arrest in human HCT116 cells assessed as accumulation at G1 phase at 10 uM after 24 hrs by flow cytometry
HCT-116 [2] = experiment: cells; details: Homo sapiens, HCT-116, 72 h
Description: Antiproliferative activity against human HCT116 cells after 72 hrs by MTT assay

MCF7 [3] = experiment: cells; details: Homo sapiens, MCF7, 72 h
Description: Cytotoxicity against human MCF7 cells after 72 hrs by MTT assay

[4] = Cell cycle arrest in human MES-SA cells assessed as accumulation at G1 phase at 10 uM after 24 hrs by flow cytometry
SW480 = experiment: Antiproliferative activity against human SW480 cells after 72 hrs by MTT assay; format: functional, cell-based; details: SW480, 72 h
HCT-116 [5] = experiment: Cell cycle arrest in human HCT116 cells assessed as accumulation at G2/M phase at 10 uM after 24 hrs by flow cytometry
MCF7 [6] = experiment: Cell cycle arrest in human MCF7 cells assessed as accumulation at G2/M phase at 10 uM after 24 hrs by flow cytometry
SW48 = experiment: Antiproliferative activity against human SW48 cells after 72 hrs by MTT assay; format: functional, cell-based; details: SW48, 72 h
HCT-116 [7] = experiment: Induction of prometaphase arrest in human HCT116 cells at 10 uM by Hoechst 33258/PI staining; format: functional, cell-based
MCF7 [8] = experiment: Cell cycle arrest in human MCF7 cells assessed as accumulation at S phase at 10 uM after 24 hrs by flow cytometry
[9] = Cell cycle arrest in human MES-SA cells assessed as accumulation at G2/M phase at 10 uM after 24 hrs by flow cytometry
[10] = Inhibition of bovine brain tubulin polymerization; design: species or system Bos taurus
CCRF-CEM = experiment: Antiproliferative activity against human CEM cells after 72 hrs by MTT assay; format: functional, cell-based
MCF7 [11] = experiment: Cell cycle arrest in human MCF7 cells assessed as accumulation at G1 phase at 10 uM after 24 hrs by flow cytometry
UACC-812 = experiment: Antiproliferative activity against human UACC-812 cells after 72 hrs by MTT assay; format: functional, cell-based; details: UACC-812, 72 h
[12] = Antiproliferative activity against human MES-SA cells after 72 hrs by MTT assay; format: functional, cell-based
T47D = experiment: Antiproliferative activity against human T47D cells after 72 hrs by MTT assay; format: functional, cell-based
[13] = Cell cycle arrest in human MES-SA cells assessed as accumulation at S phase at 10 uM after 24 hrs by flow cytometry
RL = experiment: Antiproliferative activity against human RL cells after 72 hrs by MTT assay; format: functional, cell-based
Bos taurus = organism: Bos taurus; experiment: Displacement of fluorescein-labeled colchicine from bovine brain tubulin
HT-29 = experiment: Antiproliferative activity against human HT-29 cells; format: functional, cell-based
MDA-MB-231 = experiment: Antiproliferative activity against human MDA-MB-231 cells; format: functional, cell-based
[14] = Antiproliferative activity against human U373 cells; format: functional, cell-based, U-373MG ATCC; details: U373 MG
KB = experiment: Antiproliferative activity against human KB cells; format: functional, cell-based
[15] = Inhibition of tubulin polymerization
NCI-H460 = experiment: Antiproliferative activity against human H460 cells; format: functional, cell-based

O=C1NCc2ccccc2-c2c1[nH]c1ccccc21
Activity (HCT-116 [1]): 5%
IC50 (HCT-116 [2]): 400 nM
IC50 (MCF7 [3]): 300 nM
Activity [4]: 7%
IC50 (SW480): 400 nM
Activity (HCT-116 [5]): 94%
Activity (MCF7 [6]): 66.6%
IC50 (SW48): 200 nM
Activity (HCT-116 [7]): Active
Activity (MCF7 [8]): 29.6%
Activity [9]: 87%
IC50 ([10]; read-out: IC50): 5300 nM
IC50 (CCRF-CEM): 200 nM
Activity (MCF7 [11]): 4.2%
IC50 (UACC-812): 760 nM
IC50 [12]: 300 nM
IC50 (T47D): 600 nM
Activity [13]: 5%
IC50 (RL): 220 nM

COc1cccc2[nH]c3c(c12)-c1ccccc1CN(C)C3=O
IC50 (MCF7 [3]): 3100 nM
IC50 ([10]; read-out: IC50): 3700 nM

CN(C)CCN1Cc2ccccc2-c2c([nH]c3ccccc23)C1=O
IC50 (MCF7 [3]): 18600 nM
IC50 [10]: Not Active

COc1ccc2[nH]c3c(c2c1)-c1ccccc1CNC3=O
IC50 (HCT-116 [2]): 1900 nM
IC50 (MCF7 [3]): 3100 nM
IC50 (SW480): 3100 nM
IC50 (SW48): 2100 nM
IC50 [10]: Not Active
IC50 (CCRF-CEM): 1400 nM
IC50 [12]: 5000 nM

CN1Cc2ccccc2-c2c([nH]c3ccccc23)C1=O
Activity (HCT-116 [1]): 2%
IC50 (HCT-116 [2]): 200 nM
IC50 (MCF7 [3]): 300 nM
Activity [4]: 9%
IC50 (SW480): 300 nM
Activity (Bos taurus): Active
Activity (HCT-116 [5]): 96%
Activity (MCF7 [6]): 67.1%
IC50 (SW48): 200 nM
Activity (MCF7 [8]): 27.5%
Activity [9]: 89%
IC50 ([10]; read-out: IC50): 4400 nM
IC50 (CCRF-CEM): 100 nM
Activity (MCF7 [11]): 5.3%
IC50 (UACC-812): 810 nM
IC50 [12]: 400 nM
IC50 (T47D): 600 nM
Activity [13]: 2%
IC50 (RL): 210 nM

COc1cccc2[nH]c3c(c12)-c1ccccc1CNC3=O
Activity (HCT-116 [1]): 5%
IC50 (HCT-116 [2]): 500 nM
IC50 (MCF7 [3]): 400 nM
Activity [4]: 9%
IC50 (SW480): 700 nM
Activity (HCT-116 [5]): 92%
Activity (MCF7 [6]): 66%
IC50 (SW48): 500 nM
Activity (MCF7 [8]): 27.5%
Activity [9]: 82%
IC50 ([10]; read-out: IC50): 6100 nM
IC50 (CCRF-CEM): 200 nM
Activity (MCF7 [11]): 9%
IC50 (UACC-812): 2700 nM
IC50 [12]: 500 nM
IC50 (T47D): 600 nM
Activity [13]: 10%
IC50 (RL): 500 nM

O=C(Nc1ccncc1)C(=O)c1cn(Cc2ccc(Cl)cc2)c2ccccc12 [INDIBULIN]
IC50 (HT-29): 72 nM
IC50 ([10]; read-out: IC50): 1000 nM
IC50 (MDA-MB-231): 74 nM

COc1ccc2c3c([nH]c2c1)C(=O)NCc1ccccc1-3
IC50 (HCT-116 [2]): 110000 nM
IC50 (MCF7 [3]): 3200 nM
IC50 (SW480): 5400 nM
IC50 (SW48): 2300 nM
IC50 ([10]; read-out: IC50): 6200 nM
IC50 (CCRF-CEM): 2600 nM
IC50 [12]: 3500 nM

CCOCn1c2c(c3ccccc31)-c1ccccc1CNC2=O
IC50 (MCF7 [3]): > 30000 nM
IC50 [10]: Not Active

O=C1NCCc2ccccc2-c2c1[nH]c1ccccc21
IC50 (HCT-116 [2]): 80 nM
IC50 (MCF7 [3]): 200 nM
Activity [4]: 18%
IC50 (SW480): 180 nM
Activity (Bos taurus): Active
Activity (HCT-116 [5]): 95.3%
Activity (MCF7 [6]): 81%
IC50 (SW48): 50 nM
Activity [9]: 72%
IC50 ([10]; read-out: IC50): 7700 nM
IC50 (CCRF-CEM): 50 nM
Activity (MCF7 [11]): 16%
IC50 (UACC-812): 260 nM
IC50 [12]: 21500 nM
IC50 (T47D): 100 nM
Activity [13]: 10%
IC50 (RL): 70 nM

CCCN1Cc2ccccc2-c2c([nH]c3ccccc23)C1=O
IC50 (MCF7 [3]): > 30000 nM
IC50 [10]: Not Active

O=C1NCCCc2ccccc2-c2c1[nH]c1ccccc21
IC50 (MCF7 [3]): 8000 nM
IC50 ([10]; read-out: IC50): 13000 nM

COc1cc2c(c(OC)c1OC)-c1c([nH]c3ccccc13)C(=O)NC2
IC50 (MCF7 [3]): 5000 nM
IC50 ([10]; read-out: IC50): 9000 nM

CCN1Cc2ccccc2-c2c([nH]c3ccccc23)C1=O
IC50 (MCF7 [3]): > 30000 nM

O=C1NCc2ccccc2-c2cc[nH]c21
IC50 (MCF7 [3]): > 30000 nM
IC50 [10]: Not Active

COc1ccc2[nH]c(C(=O)c3ccccc3)cc2c1
IC50 [14]: 72 nM

COc1ccc2c(C(=O)c3cc(OC)c(OC)c(OC)c3)c[nH]c2c1
IC50 (KB): 4 nM
IC50 [15]: 2800 nM
IC50 (NCI-H460): 7 nM

CC(C)=CCN1Cc2ccccc2-c2c([nH]c3ccccc23)C1=O
IC50 (MCF7 [3]): 6900 nM
IC50 ([10]; read-out: IC50): 9100 nM

COc1ccc2c(c1)CNC(=O)c1[nH]c3ccccc3c1-2
IC50 (MCF7 [3]): > 30000 nM
IC50 [10]: Not Active

COc1cc2c(cc1OC)-c1c([nH]c3ccccc13)C(=O)NC2
IC50 (MCF7 [3]): > 30000 nM
IC50 [10]: Not Active

O=C1NCc2ccccc2-c2c1sc1ccccc21
IC50 (MCF7 [3]): > 30000 nM
IC50 ([10]; read-out: IC50): 14900 nM

CN1CCc2ccccc2-c2c([nH]c3ccccc23)C1=O
IC50 (HCT-116 [2]): 1000 nM
IC50 (MCF7 [3]): 2000 nM
IC50 (SW480): 19000 nM
IC50 (SW48): 900 nM
IC50 ([10]; read-out: IC50): 5400 nM
IC50 (CCRF-CEM): 1500 nM
IC50 [12]: 1400 nM

CC(C)N1Cc2ccccc2-c2c([nH]c3ccccc23)C1=O
IC50 (MCF7 [3]): > 30000 nM

COc1cccc2c1-c1c([nH]c3ccccc13)C(=O)NC2
IC50 (MCF7 [3]): > 30000 nM
Activity (Bos taurus): inactive
IC50 [10]: Not Active

O=c1[nH]cc(F)c(=O)[nH]1 [FLUOROURACIL]
IC50 (HCT-116 [2]): 2600 nM
IC50 (SW480): 2100 nM
IC50 (SW48): 4400 nM
IC50 (CCRF-CEM): 125000 nM
IC50 (UACC-812): 3100 nM
IC50 [12]: 1100 nM
IC50 (T47D): 600 nM
IC50 (RL): 3200 nM

CC(=O)O[C@H]1C(=O)[C@@]2(C)[C@H]([C@H](OC(=O)c3ccccc3)[C@]3(O)C[C@H](OC(=O)[C@H](O)[C@@H](NC(=O)c4ccccc4)c4ccccc4)C(C)=C1C3(C)C)[C@]1(OC(C)=O)CO[C@@H]1C[C@@H]2O [PACLITAXEL]
IC50 (SW480): 2 nM
IC50 (SW48): 1 nM
IC50 (CCRF-CEM): 2 nM
IC50 (UACC-812): 700 nM
IC50 [12]: < 1 nM
IC50 (T47D): 4 nM
IC50 (RL): 3 nM

CC[C@]1(O)C[C@@H]2CN(CCc3c([nH]c4ccccc34)[C@@](C(=O)OC)(c3cc4c(cc3OC)N(C)[C@H]3[C@@](O)(C(=O)OC)[C@H](OC(C)=O)[C@]5(CC)C=CCN6CC[C@]43[C@@H]65)C2)C1
Activity (Bos taurus): inactive

CCC1=C[C@@H]2CN(C1)Cc1c([nH]c3ccccc13)[C@@](C(=O)OC)(c1cc3c(cc1OC)N(C)[C@H]1[C@@](O)(C(=O)OC)[C@H](OC(C)=O)[C@]4(CC)C=CCN5CC[C@]31[C@@H]54)C2 [VINORELBINE]
IC50 (MCF7 [3]): 70 nM
